How the values were obtained:
excisional wounds = assay: Excisional wound healing model, wound width and re-epithelialisation three days after wounding; format: in vivo, Male Sprague Dawley rats; details: for wound width of excisional wounds: three days after wounding, p<0.05 vs controls
Procedure: The guggulsterone (Z) was diluted in a solution containing 1% v/v ethanol (absolute ethanol, 200 proof, for molecular biology, purchased from Sigma-Aldrich) in phosphate buffered saline (PBS) to produce three solutions having concentrations as follows: • 1. 1 ng/100 μl (a 32 nM solution); • 2. 10 ng/100 μl (a 321 nM solution); and • 3. 1000 ng/100 μl (a 32 μM solution). At day 0, Male Sprague Dawley rats (200-250 g) were anaesthetised, shaved and wound sites were marked according to the Renovo rat incisional and excisional wounding template (4 wound model, 2×1 cm wounds at 5 cm from the base of the skull and 1 cm from the midline in each rat and 2×5 mm excisions at 8.5 cm from the base of the skull and 1 cm from the midline of each rat). One hundred microlitres of Guggulsterone (Z) at 1 ng, 10 ng or 1000 ng in 1% v/v ethanol/PBS (EtOH/PBS), were injected intradermally at the target wound sites, A, B, C and D. The intradermal injections caused the formation of a raised bleb, which was then either immediately incised to form 1 cm long experimental wounds at wound positions A and B, or subject to a 5 mm punch biopsy, at wound positions C and D. A separate group of rats were wounded, without any injection, to act as the untreated Naïve control group in addition to the diluent injected control group. All treated wounds were re-injected again 1 day post-wounding with the appropriate treatment via either injection of […] to each of the two margins of the 1 cm wound, or via injection of 25 μl to each of the four quadrants of a 5 mm punch biopsy, and harvested at day 3 post-wounding. […] The wounds were assessed using standard macroscopic wound assessment sheets that include a Visual Analogue Scale (VAS) to quantify the quality of the wounds. The excisions and incisions were analysed microscopically, after histological processing by image analysis for re-epithelialisation (excisions only) and wound width (incisions only) to determine the role of Guggulsterone (Z) on early wound healing. […] The average wound width value was calculated from all of the wounds at each treatment group.

[1] = cited from earlier work
incisional wounds = assay: Incisional scarring model, macroscopic and microscopic VAS scar assessment 70 days after wounding; format: in vivo, Male Sprague Dawley rats
Procedure: The guggulsterone (Z) was diluted in a solution containing 1% v/v ethanol (absolute ethanol, 200 proof, for molecular biology, purchased from Sigma-Aldrich) in phosphate buffered saline (PBS) to produce three solutions having concentrations as follows: • 1. 1 ng/100 μl (a 32 nM solution); • 2. 10 ng/100 μl (a 321 nM solution); and • 3. 1000 ng/100 μl (a 32 μM solution). At Day 0, male Sprague Dawley rats (200-250 g) were anaesthetised, shaved and wound sites were marked according to the Renovo rat incisional wounding template (2 wound model, 2×1 cm wounds at 5 cm from the base of the skull and 1 cm from the midline in each rat). […] The scars were assessed using standard macroscopic scar assessment sheets that include a Visual Analogue Scale (VAS) to quantify the quality of the scars. […] 70 days after wounding the experimental rats were killed, and the scars resulting from treated wounds and control wounds assessed both macroscopically and microscopically. The scars of the experimental rats were photographed and assessed using macroscopic scar assessment sheets. […] The best scars (typically of small width with colour, height and contour like normal skin) were scored towards the normal skin end of the scale (the left hand side of the VAS line) and bad scars (typically large width, raised with uneven contours and whiter colour) were scored towards the bad scar end of the scale (the right hand side of the VAS line). The marks were measured from the left hand side to provide the final value for the scar assessment in centimetres (to 1 decimal place). […] Histological slides were stained using Masson's trichrome, and scarring assessed, by two independent observers, using a microscopic visual analogue scale (VAS). […]

[2] = each concentration investigated (1, 10, 1000 ng/100 μl), 70 days post-wounding

## C/C=C1\C(=O)CC2C3CCC4=CC(=O)CC[C@]4(C)C3CC[C@]12C (stereo partly drawn) [Guggulsterone (Z), (17Z)-Pregna-4,17(20)-diene-3,16-dione-4,17(20)-cis-Pregnadiene-3,16-dione]
Excisional wounds; 1 ng/100 μl (3.2 pmoles per cm of wound)
  wound width of excisional wounds: significantly decreased wound width
Excisional wounds; 10 ng/100 μl (32 pmoles per cm of wound)
  wound width of excisional wounds: significantly decreased wound width
Excisional wounds; three days after wound formation
  promotion of wound contraction, by width of excisional wounds: able to promote wound contraction
[1]; DMSO, room temperature
  soluble in DMSO: 5 mg/mL
[1]; ethanol
  soluble in ethanol: soluble
Incisional wounds; [2]
  inhibition of scarring, macroscopic analysis of scars: significantly inhibit scarring
  inhibition of scarring, microscopic analysis of scars: significantly inhibit scarring
Incisional wounds; representative images, 70 days after wounding
  macroscopic appearance of treated scar versus naïve control scar (FIG. 3): considerably more difficult to detect
